From US20260294769A1, “ASCORBIC ACID DERIVATIVES AND COSMETIC THEREOF” (SEIWA KASEI COMPANY, LIMITED, priority 2023, published 2026) come the findings set out here.

The structures appear in SMILES notation. Read-outs that look alike come from different tables or passages of the source. Bounds are passed on as bounds.

Series [1] can be described thus: Stability Test-1: residual rate of 1% aqueous solutions stored at 50° C. (HPLC). The settings on record: water, 1% aqueous solution; for remaining at 336 h: after 2 weeks, read-out: Residual Rate; for remaining at 672 h: after 4 weeks. Type of series: physicochemical.
A short description of series [2]: Stability Test-1: odor of 1% aqueous solutions adjusted to pH 7 stored at 50° C. Type of series: physicochemical. The note with it: 1% aqueous solution pH 7, 50° C., 10 panelists. The protocol: (§1) For each of the samples of Synthesis Examples 1 to 6, 1% aqueous solutions were adjusted to pH 3, 5, 7, 8, and 9 with a dilute potassium hydroxide aqueous solution, and then placed in 50 mL screw tubes and sealed. […] Furthermore, the odor and coloration of the samples adjusted to pH 7 were evaluated based on the following methods and criteria, and the results are shown in Table 11.
• Evaluation was made by 10 panelists according to the following criteria. • 3: Almost odorless. • 2: There is a slight strange odor. • 1: A strong odor is detected. • Based on the results of the above evaluation, the following classification was made: • ◯: Total score of 10 panelists is 25 or more • Δ: Total score of 10 panelists is 16-24 • x: The total score of 10 panelists is 15 or less

The nature of series [3]: Stability Test-1: coloration of 1% aqueous solutions adjusted to pH 7 stored at 50° C. The settings on record: 1% aqueous solution pH 7, 50° C., 10 panelists. It is filed as physicochemical. The protocol:
as §1
• Evaluation was made by 10 panelists according to the following criteria. • 3: Almost no change compared to immediately after preparation. • 2: Color changes compared to immediately after preparation. • 1: Strongly colored compared to immediately after preparation. • Based on the results of the above evaluation, the following classification was made: […]

The subject of series [4] is Normal human dermal fibroblasts. The series can be described thus: Collagen production promoting effect (ELISA of free collagen in supernatant). The note with it: 10 mM or less, 48 hours, control group set to 100%, N=3. It is filed as cell-based. The protocol:
Normal human dermal fibroblasts were prepared in D-MEM containing 5% (v/v) fetal bovine serum to a cell density of 2.5×10^4 cells/well, and then pre-incubated for 24 hours on a 96-well plate. After removing the medium, samples prepared to a predetermined concentration in D-MEM containing 5% (v/v) fetal bovine serum were added to each well and cultured for 48 hours. After the culture was completed, the amount of free collagen in the supernatant was quantified by ELISA. Measurements were performed in triplicate (N=3).
The amount of collagen produced when the sample was measured at a concentration of 10 mM or less was compared with that of the control group, and the results (% values when the control group was set to 100%) are shown in Table 17 based on the following criteria.
(In general: An ELISA detects its analyte on a solid surface through an enzyme-linked reagent.)

The test system of series [5] is Normal human dermal fibroblasts (NHDF). The series can be described thus: Hyaluronic acid production promoting effect (ELISA of hyaluronic acid in supernatant). Type of series: cell-based. The settings on record: 10 mM or less, 48 hours, control group set to 100%, N=3. A digest of the protocol: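 NHDF seeded at 2.5×10^4 cells/well in D-MEM with 5% FBS, pre-incubated 24 h, then exposed to samples in serum-free D-MEM for 48 h. Supernatant hyaluronic acid measured by ELISA in triplicate, expressed as % of control (100%) at ≤10 mM sample.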

The nature of series [6]: Stability Test-2: residual rate in cream of pH 7 or 9 stored at 50° C. It is filed as physicochemical. A digest of the protocol: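 Each test sample was formulated into a cream adjusted to pH 7 or 9: components (a) and (b) were heated and mixed separately, cooled, and then component (c) was added. The cream was held at 50° C., and the percentage of the sample compound still present (residual rate) was determined after storage.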

The nature of series [7]: Stability Test-2: odor of cream stored at 50° C. The note with it: 10 panelists. Type of series: physicochemical. In outline: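 Test creams were made by heating and mixing components (a) and (b), cooling, then adding component (c) to give a pH of 7 or 9. After storage at 50° C., 10 panelists scored odor: 3 almost odorless, 2 slight strange odor, 1 strong odor. Totals were graded ◯ (25 or more), Δ (16-24) or x (15 or less).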

Series [8] is described as follows: Stability Test-2: coloration of cream stored at 50° C. The note with it: 10 panelists. It is filed as physicochemical. A digest of the protocol: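 Creams were made by heating and mixing parts (a) and (b), cooling, then adding part (c), adjusting pH to 7 or 9. After storage at 50° C., ten panelists scored coloration against the freshly prepared cream: 3 for almost no change, 2 for color change, 1 for strong coloration.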

Series [9] concerns Normal human epidermal keratinocytes. In words: Antioxidant effect: ROS production inhibition rate (DCFHDA, H2O2). The settings on record: 10 mM or less, 24 hours incubation, 0.2 mM H2O2, N=4. Type of series: cell-based. The protocol: Normal human epidermal keratinocytes were seeded onto a 96-well plate using KG2 medium at a cell density of 2.0×10^4 cells/well. After 24 hours of pre-incubation, samples adjusted to a predetermined concentration in KG2 medium were added to each well. After 24 hours of incubation, the medium was removed, followed by washing with HBSS(−) and the incorporation of the ROS-reactive fluorescent probe DCFHDA for 30 minutes. The cells were again washed with HBSS(−), treated with 0.2 mM H2O2, and incubated for 2 hours. The fluorescence intensity was measured, and the amount of ROS produced per unit protein was calculated by dividing the fluorescence intensity by the amount of protein quantified by the BCA method, resulting in an analytical value of 1. Furthermore, the amount of ROS production calculated without adding the sample adjusted to a predetermined concentration using the above test method was set to analytical value 2; and the amount of ROS production calculated without adding the sample or 0.2 mM H2O2 was set to analytical value 3.
ROS production inhibition rate (%) was calculated using the following formula. The higher the ROS production inhibition rate, the greater the antioxidant effect can be evaluated to be.
The ROS production inhibition rate when the sample was measured at a concentration of 10 mM or less was evaluated as follows. Note that the measurement was performed in N=4.

The mark [10] stands for this setting: cream pH 7, 50° C., after 2 weeks, 20160 min.
[11] abbreviates: cream pH 7, 50° C., after 4 weeks, 40320 min.
The mark [12] stands for this setting: cream pH 9, 50° C., after 2 weeks, 20160 min.
The mark [13] stands for this setting: cream pH 9, 50° C., after 4 weeks, 40320 min.

With `O=C1OC(C(O)CO)C2=C1OCCCO2` (stereo not drawn) [Synthesis Example 2, 2,3-O-(1,3-propanediyl) ascorbic acid], the remaining at 336 h in series [1] (pH 3, 50° C.) was at least 80%; in series [1] (pH 5, 50° C.), at least 80%; in series [1] (pH 7, 50° C.), at least 80%; in series [1] (pH 8, 50° C.), at least 80%; in [1] (pH 9, 50° C.), 50 to 80%. For the same compound, the remaining at 672 h in series [1] (pH 3, 50° C.) is at least 80%; in series [1] (pH 5, 50° C.), at least 80%; in series [1] (pH 7, 50° C.), at least 80%; in [1] (pH 8, 50° C.), 50 to 80%; in [1] (pH 9, 50° C.), 30 to 50%. The Odor result in series [2] (after 2 weeks) was “∘ (Total score of 10 panelists is 25 or more)”; in [2] (after 4 weeks), “Δ (Total score of 10 panelists is 16-24)”. The Coloration entry in series [3] (after 2 weeks) and in [3] (after 4 weeks) was “∘ (Total score of 10 panelists is 25 or more)” each time. In addition, the Collagen production-promoting effect entry in [4] was “++ (140%<)”. Further, the “Hyaluronic acid production-promoting effect” value in series [5] is given as “++ (120%<)”.

Regarding `O=C1OC(C(O)CO)C2=C1OCC1(COC1)CO2` (stereo not drawn) [Synthesis Example 6, 2,3-O-(3,3-dimethyleneoxetane) ascorbic acid], the remaining at 336 h in series [1] (pH 3, 50° C.) was at least 80%; in series [1] (pH 5, 50° C.), at least 80%; in series [1] (pH 7, 50° C.), 50 to 80%; in [1] (pH 8, 50° C.) it was 50 to 80%; in [1] (pH 9, 50° C.) it was 50 to 80%. Also, the remaining at 672 h in series [1] (pH 3, 50° C.) was at least 80%; in [1] (pH 5, 50° C.), at least 80%; in series [1] (pH 7, 50° C.), 50 to 80%; in series [1] (pH 8, 50° C.), 30 to 50%; in [1] (pH 9, 50° C.) it was 30 to 50%. Also, the Odor result in [2] (after 2 weeks) and in series [2] (after 4 weeks) was “∘ (Total score of 10 panelists is 25 or more)” throughout. Also, the Coloration result in [3] (after 2 weeks) and in series [3] (after 4 weeks) was “∘ (Total score of 10 panelists is 25 or more)” in each case. In series [4], the Collagen production-promoting effect result is recorded as “++ (140%<)”. Besides, the “Hyaluronic acid production-promoting effect” value in series [5] is given as “++ (120%<)”.

For `CCCCCCCCCCCC(=O)OCC(O)C1OC(=O)C2=C1OCCCCO2` (stereo not drawn) [Synthesis Example 13, 6-O-lauroyl-2,3-O-(1,4-butanediyl) ascorbic acid], the “Residual Rate” value in [6] (setting [10]), in [6] (setting [11]), in series [6] (setting [12]) and in [6] (setting [13]) was “⊚ (95% or more)” throughout. The Odor result is “◯ (Total score of 10 panelists is 25 or more)” in series [7] (after 2 weeks) and “Δ (Total score of 10 panelists is 16-24)” in series [7] (after 4 weeks). Also, the Coloration result in [8] (after 2 weeks) and in [8] (after 4 weeks) was “◯ (Total score of 10 panelists is 25 or more)” throughout. The “Hyaluronic acid production-promoting effect” value in series [5] is on record as “++ (120%<)”. Further, the “Antioxidant effect (ROS production inhibition rate)” value in [9] was “+ (<20%)”.

Regarding `CCCCCCCCCCCC(=O)OCC(OC(=O)CCCCCCCCCCC)C1OC(=O)C2=C1OCCCCO2` (stereo not drawn) [Synthesis Example 14, 5,6-O-dilauroyl-2,3-O-(1,4-butanediyl) ascorbic acid], the “Residual Rate” value in [6] (setting [10]) is recorded as “⊚ (95% or more)”; in [6] (setting [11]) it was “⊚ (95% or more)”; in series [6] (setting [12]), “⊚ (95% or more)”; in series [6] (setting [13]), “∘ (85% or more, less than 95%)”. Further, the Odor entry is “◯ (Total score of 10 panelists is 25 or more)” in [7] (after 2 weeks) and “Δ (Total score of 10 panelists is 16-24)” in series [7] (after 4 weeks). Besides, the Coloration result in series [8] (after 2 weeks) and in series [8] (after 4 weeks) was “◯ (Total score of 10 panelists is 25 or more)” each time. In addition, the “Hyaluronic acid production-promoting effect” value in series [5] is recorded as “++ (120%<)”. The “Antioxidant effect (ROS production inhibition rate)” value in series [9] is “+ (<20%)”.

Turning to `CCCCCCCC(=O)OCC(OC(=O)CCCCCCC)C1OC(=O)C2=C1OCCCO2` (stereo not drawn) [Synthesis Example 23, 5,6-O-dioctanoyl-2,3-O-(1,3-propanediyl) ascorbic acid], the “Residual Rate” value in series [6] (setting [10]), in [6] (setting [11]), in series [6] (setting [12]) and in series [6] (setting [13]) was “⊚ (95% or more)” each time. In addition, the Odor entry in series [7] (after 2 weeks) is “◯ (Total score of 10 panelists is 25 or more)”; in series [7] (after 4 weeks) it was “Δ (Total score of 10 panelists is 16-24)”. Also, the Coloration result in series [8] (after 2 weeks) and in series [8] (after 4 weeks) was “◯ (Total score of 10 panelists is 25 or more)” each time. Besides, in series [4], the Collagen production-promoting effect result was “++ (140%<)”. Moreover, the “Antioxidant effect (ROS production inhibition rate)” value in [9] was “+ (<20%)”.

For `CCCCCCCCCCCCCCCC(=O)OCC(OC(=O)CCCCCCCCCCCCCCC)C1OC(=O)C2=C1OCCCO2` (stereo not drawn) [Synthesis Example 27, 5,6-O-dipalmitoyl-2,3-O-(1,3-propanediyl) ascorbic acid], the “Residual Rate” value in series [6] (setting [10]), in [6] (setting [11]), in series [6] (setting [12]) and in [6] (setting [13]) was “⊚ (95% or more)” each time. Also, the Odor result in series [7] (after 2 weeks) is listed as “◯ (Total score of 10 panelists is 25 or more)”; in [7] (after 4 weeks), “Δ (Total score of 10 panelists is 16-24)”. Moreover, the Coloration entry is “◯ (Total score of 10 panelists is 25 or more)” in series [8] (after 2 weeks) and “Δ (Total score of 10 panelists is 16-24)” in series [8] (after 4 weeks). For the same compound, the Collagen production-promoting effect result in series [4] is given as “++ (140%<)”. Further, the “Hyaluronic acid production-promoting effect” value in series [5] is listed as “++ (120%<)”.
